Common to all, as to format: cell-based
The target in one experiment is T1, human TLR7 (Homo sapiens, UniProt Q9NYK1).
T1 construct: expressed in transfected cells; host or cells: HEK cell line (HEK293, as in the primary assay)
T1 sequence (Q9NYK1 27-1049): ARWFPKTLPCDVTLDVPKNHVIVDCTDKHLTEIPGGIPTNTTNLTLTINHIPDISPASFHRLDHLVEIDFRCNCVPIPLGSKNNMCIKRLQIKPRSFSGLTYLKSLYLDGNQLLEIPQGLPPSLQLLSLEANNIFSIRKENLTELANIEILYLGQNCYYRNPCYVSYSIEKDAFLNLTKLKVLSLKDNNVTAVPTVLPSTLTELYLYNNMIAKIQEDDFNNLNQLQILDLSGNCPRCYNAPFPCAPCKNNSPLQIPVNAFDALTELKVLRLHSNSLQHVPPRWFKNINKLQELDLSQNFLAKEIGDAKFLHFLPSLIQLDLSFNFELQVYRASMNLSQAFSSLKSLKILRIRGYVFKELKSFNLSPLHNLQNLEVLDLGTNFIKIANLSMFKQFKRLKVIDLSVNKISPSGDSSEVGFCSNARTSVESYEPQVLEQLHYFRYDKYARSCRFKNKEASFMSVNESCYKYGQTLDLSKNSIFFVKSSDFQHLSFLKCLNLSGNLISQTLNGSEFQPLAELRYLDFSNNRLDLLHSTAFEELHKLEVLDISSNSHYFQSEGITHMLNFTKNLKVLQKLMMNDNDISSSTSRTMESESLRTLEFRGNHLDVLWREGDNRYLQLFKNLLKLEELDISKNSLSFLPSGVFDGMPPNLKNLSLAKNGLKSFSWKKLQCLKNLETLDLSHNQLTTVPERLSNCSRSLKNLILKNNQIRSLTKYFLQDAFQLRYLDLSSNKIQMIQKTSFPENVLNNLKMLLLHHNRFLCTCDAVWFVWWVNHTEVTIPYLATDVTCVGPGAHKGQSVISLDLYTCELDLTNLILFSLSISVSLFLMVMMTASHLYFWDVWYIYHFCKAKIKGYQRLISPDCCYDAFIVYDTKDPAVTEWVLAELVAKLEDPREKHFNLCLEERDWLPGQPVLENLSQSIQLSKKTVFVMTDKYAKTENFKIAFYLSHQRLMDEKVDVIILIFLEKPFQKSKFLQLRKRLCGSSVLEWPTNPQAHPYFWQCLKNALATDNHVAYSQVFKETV
Description: HEK/TLR7 activation assay (R848 stimulation). To be noted: HEK cells transfected with human TLR7. The protocol:
(1) HEK/TLR7Activation Assay: The same compounds were tested in the same way as the primary assay with the following differences. The plasmid used to transfect the HEK cell line encoded for human TLR7 instead of TLR9, and R848 was used to stimulate the cells instead of Oligo CpG 2006.

A further experiment deals with T2, human TLR9 (Homo sapiens, UniProt Q9NR96).
T2 construct: expressed in transfected cells; host or cells: HEK293 (ATCC No. CRP-1573 [sic])
T2 sequence (Q9NR96 26-1032): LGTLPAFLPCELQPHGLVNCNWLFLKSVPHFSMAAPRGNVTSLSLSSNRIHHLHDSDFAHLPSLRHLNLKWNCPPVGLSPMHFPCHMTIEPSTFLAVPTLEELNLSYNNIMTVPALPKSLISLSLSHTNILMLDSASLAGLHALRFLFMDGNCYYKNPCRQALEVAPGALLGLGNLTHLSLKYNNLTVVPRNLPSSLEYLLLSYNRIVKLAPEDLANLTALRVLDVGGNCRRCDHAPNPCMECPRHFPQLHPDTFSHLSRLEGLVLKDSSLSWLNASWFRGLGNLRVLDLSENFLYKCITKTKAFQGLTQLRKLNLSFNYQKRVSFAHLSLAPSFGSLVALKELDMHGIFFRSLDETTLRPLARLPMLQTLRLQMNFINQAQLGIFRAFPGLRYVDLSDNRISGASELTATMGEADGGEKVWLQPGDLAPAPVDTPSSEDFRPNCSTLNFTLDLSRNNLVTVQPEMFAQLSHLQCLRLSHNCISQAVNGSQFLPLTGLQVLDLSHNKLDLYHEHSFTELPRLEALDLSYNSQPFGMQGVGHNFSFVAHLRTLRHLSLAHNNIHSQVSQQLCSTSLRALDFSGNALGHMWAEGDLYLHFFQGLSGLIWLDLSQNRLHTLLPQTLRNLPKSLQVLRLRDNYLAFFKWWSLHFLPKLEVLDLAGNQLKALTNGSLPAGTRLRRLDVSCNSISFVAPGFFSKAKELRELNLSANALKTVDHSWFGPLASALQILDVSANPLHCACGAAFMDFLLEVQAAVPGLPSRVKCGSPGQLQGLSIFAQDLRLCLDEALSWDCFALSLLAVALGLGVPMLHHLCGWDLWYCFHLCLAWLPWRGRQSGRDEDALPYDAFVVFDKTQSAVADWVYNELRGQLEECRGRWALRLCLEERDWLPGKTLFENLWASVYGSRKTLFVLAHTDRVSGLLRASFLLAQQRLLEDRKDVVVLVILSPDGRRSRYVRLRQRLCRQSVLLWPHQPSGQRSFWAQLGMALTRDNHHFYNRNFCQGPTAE
Description: Primary assay: HEK/TLR9 activation (NF-kB luciferase reporter, Oligo CpG 2006 stimulation). The source says:
A. Primary Assay. The primary assay involved transfecting human embryonic kidney epithelial (HEK) cells with TLR9. More specifically, HEK293 […] cells (ATCC No. CRP-1573, American Type Culture Collection, Manassas, Va.) were transfected with pcDNA3.1D/V5-His-TOPO® plasmid (Invitrogen, Carlsbad, Calif.) encoding human TLR9 (directly inserted as a Tag polymerase-amplified PCR product) and firefly luciferase under the control of three NF-kB binding sites contained in the E-selectin-1 promoter, which was cloned into a pGL3-Enhancer Vector (Promega Corp, Madison, Wis.). Each compound was added to cells 30 min. before stimulation with Oligo CpG 2006, a synthetic phosphorothioate oligonucleotide (Hartmann et al., J Immunol. 164:1617-24 (2000)), with nucleotide sequence 5′-TCGTCGTTTTGTCGTTTTGTCGTT-3′ (SEQ ID NO:1). The cells were incubated overnight at 37° C. The luciferase substrate Steady-Glo® (Promega) was added to the wells, and luminescence was measured to determine the extent of TLR9-driven gene activation. The luminescence data was used to calculate an IC50 for each sample. The IC50 is defined as the concentration of compound that suppresses the luminescence to 50% of that observed in the absence of compound, in other words, with full stimulation.
On the technique in general: Reporter assays use an easily measured gene product as a stand-in for the process of interest.

The subject of experiment [1] is mouse spleen IL-6 production in response to Oligo CpG 1668. The experiment is described as follows: Splenocyte CpG 1668 assay (IL-6 ELISA). To be noted: mouse splenocytes, Oligo CpG 1668, 72 hrs. On the procedure:
(2) Splenocyte CpG 1668 Assay: Some of the compounds tested in the primary assay were also assayed for suppression of mouse spleen IL-6 production in response to stimulation with Oligo CpG 1668, a synthetic phosphorothioate oligonucleotide (Krieg et al. Nature. 374:546-9 (1995)), with nucleotide sequence [NT] (SEQ ID NO:2). Each compound was added to dissociated splenocytes before addition of stimulatory oligonucleotide. Cells were stimulated in culture for 72 hrs and the supernatant was removed for ELISA analysis of IL-6 level. Here the IC50 is defined as the concentration of compound that suppresses cytokine production to 50% of that observed in the absence of compound, i.e., full stimulation.

For experiment [2], the system named is dissociated mouse splenocytes. Description: Spleen CellTiter-Glo viability assay. The conditions noted are these: Splenocyte, 72 hours, viability (ATP). The protocol: (3) Spleen CT Glo Assay: To determine if compounds had adverse effects on living cells, dissociated mouse splenocytes were incubated with some of the compounds for 72 hours. At the end of the incubation Celliter-Glo™ reagent (Promega Corporation, Madison, Wis.) was added and luminescence was read per manufacturer's instructions. This reagent measures ATP as an indication of cell metabolism. Dead cells will not produce signal. IC50 is defined as the concentration of compound that suppresses viability to 50% of that observed in the absence of compound. The few compounds that measurably affected viability did so at concentrations far above those that affected cytokine release in response to TLR9 stimulation.
On the technique in general: Cellular ATP, detected with luciferase, serves as a proxy for viable cell number.

Where [3] appears, read: HEK293 transfected with human TLR9 and NF-kB luciferase, compound 30 min before Oligo CpG 2006, overnight, read-out: HEK/TLR9 IC50.
Where [4] appears, read: read-out: IC50 in the primary HEK/TLR9 assay.

Read-outs that look alike come from different tables or passages of the source.

Take `CN(C)CCOc1ccc(-c2nc3ccc(OCCN(C)C)cc3o2)cc1` [Compound 1]: the IC50 against human TLR7 was found to be 7800 nM; on human TLR9 (setting [3]), 31 nM; at human TLR9 (setting [4]), 60 nM; in experiment [1], 290 nM.

Take `CN(C)CCOCCN(C)CCCOc1ccc(-c2nc3ccc(OCCCN(C)CCOCCN(C)C)cc3o2)cc1` [Compound 36]: the figures for the IC50 against human TLR7 and on human TLR9 (setting [3]) were more than 2500 nM and 38 nM, respectively.

Take `CN(C)CCCCCOc1ccc(-c2nc3ccc(OCCCCCN(C)C)cc3o2)cc1` [Compound 3]: the IC50 against human TLR7 worked out at 1400 nM; on human TLR9 (setting [3]) it was 23 nM.

In the case of `CN(C)CCCOc1cccc(-c2nc3ccc(OCCCN(C)C)cc3o2)c1` [Compound 5], the IC50 against human TLR7 was determined as 2000 nM; on human TLR9 (setting [3]), 11 nM.

As to `COCCNCCCOc1ccc(-c2nc3ccc(OCCCNCCOC)cc3o2)cc1` [Compound 7], the IC50 at human TLR7 is 1310 nM; in experiment [2], more than 10 µM; at human TLR9 (setting [3]), 23.3 nM.

As to `CCN(CC)CCN(CC)CCCOc1ccc(-c2nc3ccc(OCCCN(CC)CCN(CC)CC)cc3o2)cc1` [Compound 32], the IC50 against human TLR7 is 580 nM; in experiment [2] it was more than 10 µM; on human TLR9 (setting [3]), 9.6 nM; in experiment [1], 10 nM.

In the case of `CCNCCCOc1ccc(-c2nc3ccc(OCCCNCC)cc3o2)cc1` [Compound 33], the figures for the IC50 on human TLR7 and on human TLR9 (setting [3]) were 8520 nM and 100 nM, respectively.

With `c1cc(-c2nc3ccc(OC4CCNC4)cc3o2)ccc1OC1CCNC1` (centres unmarked) [Comparator, reference compound], the values for the IC50 (against human TLR7; on human TLR9 (setting [4]); in experiment [1]) were 2690 nM, 160 nM and 1020 nM, respectively.

As for `CCN(C)CCCOc1ccc(-c2nc3ccc(OCCCN(C)CC)cc3o2)cc1` [Compound 21], the IC50 at human TLR7 turned out to be 1240 nM; in experiment [2], 9.58 µM; at human TLR9 (setting [3]), 13.3 nM.

Regarding `C1=CCN(CCCOc2ccc(-c3nc4ccc(OCCCN5CC=CCC5)cc4o3)cc2)CC1` [Compound 28], the figures for the IC50 (on human TLR7; in experiment [2]; at human TLR9 (setting [3])) were 1550 nM, more than 10 µM and 12.5 nM, respectively.

On to `CN(C)CCCOCCCN(C)CCCOc1ccc(-c2nc3ccc(OCCCN(C)CCCOCCCN(C)C)cc3o2)cc1` [Compound 37], for which the IC50 was more than 2500 nM against human TLR7 and 30 nM on human TLR9 (setting [3]).

Turning to `c1cc(N2CCN(CCCOc3ccc(-c4nc5ccc(OCCCN6CCN(c7ccncc7)CC6)cc5o4)cc3)CC2)ccn1` [Compound 19], the figures for the IC50 (on human TLR7; in experiment [2]; on human TLR9 (setting [3])) were 1100 nM, 10 µM and 27.6 nM, respectively.

For `COCCN(C)CCCOc1ccc(-c2nc3ccc(OCCCN(C)CCOC)cc3o2)cc1` [Compound 18], the IC50 came to 1400 nM on human TLR7, 9.9 µM in experiment [2] and 19.2 nM on human TLR9 (setting [3]).

On to `O[C@H]1CC[C@H](NCCCOc2ccc(-c3nc4ccc(OCCCN[C@H]5CC[C@H](O)CC5)cc4o3)cc2)CC1` [Compound 6], for which the IC50 against human TLR7 amounted to 8410 nM; at human TLR9 (setting [3]), 20.2 nM.

Regarding `c1ccc(CNCCCOc2ccc(-c3nc4ccc(OCCCNCc5ccccn5)cc4o3)cc2)nc1` [Compound 8], the IC50 against human TLR7 was found to be 1230 nM; in experiment [2], 7.82 µM; at human TLR9 (setting [3]), 19.7 nM.

With `CN(C)CCCNCCCOc1ccc(-c2nc3ccc(OCCCNCCCN(C)C)cc3o2)cc1` [Compound 9], the IC50 against human TLR7 came to 9050 nM; at human TLR9 (setting [3]), 120 nM.

Regarding `CN(C)CCCOc1ccc2nc(-c3ccccc3OCCCN(C)C)oc2c1` [Compound 4], the IC50 against human TLR7 was 1800 nM; on human TLR9 (setting [3]) it was 12 nM.

For `COC[C@@H]1CCCN1CCCOc1ccc(-c2nc3ccc(OCCCN4CCC[C@H]4COC)cc3o2)cc1` [Compound 25], the IC50 in experiment [2] is more than 10 µM; on human TLR9 (setting [3]) it was 18.2 nM; in experiment [1], 48 nM.

For the compound `CN(C)CCCCN(C)CCCOc1ccc(-c2nc3ccc(OCCCN(C)CCCCN(C)C)cc3o2)cc1` [Compound 38], the IC50 is more than 2500 nM against human TLR7 and 34 nM on human TLR9 (setting [3]).

Consider `CCOCCN1CCN(CCCOc2ccc(-c3nc4ccc(OCCCN5CCN(CCOCC)CC5)cc4o3)cc2)CC1` [Compound 15], for which the IC50 on human TLR7 is 2240 nM; in experiment [2], more than 10 µM; on human TLR9 (setting [3]) it was 23.2 nM.
